Measured values as given in publication PMC9555310, “Novel inhibitors and activity-based probes targeting serine proteases” (Frontiers in Chemistry, 2022).
“And” between values parts separate entries of the source, which are not always exact repeats. Equal entries are not always repeated.

Key:
neutrophil elastase (NE) = molecular target: T1, neutrophil elastase (NE) (Homo sapiens, UniProt P08246); assay: Irreversible inhibition kinetics of neutrophil elastase (fluorogenic substrate progress curves); type: biochemical
T1 construct: purchased Calbiochem
T1 sequence (P08246 30-267): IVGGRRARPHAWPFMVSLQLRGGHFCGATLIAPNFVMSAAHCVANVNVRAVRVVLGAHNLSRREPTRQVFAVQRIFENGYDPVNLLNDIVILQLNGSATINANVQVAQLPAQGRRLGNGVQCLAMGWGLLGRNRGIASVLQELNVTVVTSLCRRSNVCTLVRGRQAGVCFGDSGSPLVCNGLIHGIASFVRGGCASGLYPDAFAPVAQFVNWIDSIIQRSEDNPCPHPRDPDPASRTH
Protocol: (§1) A range of inhibitor concentrations were prepared from a 10 mM stock solution of the test compounds (NAP533, NAP559, NAP800, NAP830, NAP849, and NAP962) in N, N-dimethylformamide (DMF). Recombinant protease activities were assayed using the cognate fluorogenic substrates as follows: trypsin (Z-Gly-Gly-Arg-NHMec), thrombin (Boc-Val-Pro-Arg-NHMec), plasmin (Boc-Val-Leu-Lys-NHMec), human neutrophil elastase (MeO-Succinyl-Ala-Ala-Pro-Val-NHMec), and chymotrypsin (Succinyl-Ala-Ala-Pro-Phe-NHMec). Each substrate was used at a final concentration of 50 μM, in the appropriate buffer for each protease. All inhibition assays were performed in microtiter plates maintained at 37°C in a final volume of 100 μL. The reaction was initiated by the addition of each protease (approx. 0.01 μg/well) and the rate of substrate hydrolysis was recorded continuously at 37°C, over a 60 min period, by measuring the rate of increase in fluorescence (at λex 360 nm, λem 480 nm) using a FLUOstar Optima microplate reader (BMG Labtech).
(§2) The resultant inhibition progress curves obtained for each inhibitor were analyzed by the kinetic models developed by [Tian and Tsou (1982)] and [Walker and Elmore (1984)], for irreversible inhibitors, with curve fitting being achieved using GraFit (Erithacus Software), as described previously ([Ferguson et al., 2016]).
(§3) FIGURE 4 Progress curves for (A), chymotrypsin-catalysed hydrolysis of Succinyl-Ala-Ala-Pro-Phe-NHMec, in the presence of varying concentrations of NAP849. (B), NE-catalysed hydrolysis of MeO-succinyl-Ala-Ala-Pro-Val-NHMec, in the presence of varying concentrations of NAP800. (C) Trypsin-catalysed of Z-Gly-Gly-Arg-NHMec, in the presence of NAP830. (D) Plasmin-catalysed hydrolysis of Boc-Val-Leu-Lys-NHMec, in the presence of varying concentrations of NAP962. Assays were carried out in PBS, pH 7.4, at 37°C, in the presence of a range of inhibitor concentrations (0.25–50 μM) and a fixed concentration (50 μM) of the appropriate substrate for each protease.
The “product progress” curves for substrate hydrolysis in the presence of an inhibitor (Figure 4) are indicative of the action of irreversible inhibitors operating through the kinetic scheme illustrated in Figure 6. In this scheme, the formation of the reversible enzyme–inhibitor complex (EI) is zcharacterized by the inhibitor constant K i. This is converted into the covalent/irreversible complex (E-I) characterized by a first-order rate constant k 3. The overall second-order rate constant for the inactivation of E by I is given by the ratio k 3/K i ([Walker and Elmore, 1984]; [Tsou, 1988]). […]
(§4) Protease inactivation by each of the compounds under study was evaluated using a fluorogenic enzyme assays. […]

trypsin = molecular target: T2, trypsin (Sus scrofa, UniProt P00761); assay: Irreversible inhibition kinetics of trypsin (fluorogenic substrate progress curves); type: biochemical, porcine
T2 construct: purchased Sigma-Aldrich; host or cells: porcine pancreas
T2 sequence (P00761 9-231): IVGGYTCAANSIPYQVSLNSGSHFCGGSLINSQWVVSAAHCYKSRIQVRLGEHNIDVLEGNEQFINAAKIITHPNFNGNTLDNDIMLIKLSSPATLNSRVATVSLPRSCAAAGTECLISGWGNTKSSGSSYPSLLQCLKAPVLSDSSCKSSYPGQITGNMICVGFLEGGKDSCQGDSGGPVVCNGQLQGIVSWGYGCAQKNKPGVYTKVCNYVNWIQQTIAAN
Protocol: as §1, §2
as §3, with “protease. […]” for “protease.”
as §4

[1] = first-order rate constant, PBS pH 7.4, 37°C, mean ± SD (n=2)
[2] = second-order rate constant of inactivation, PBS pH 7.4, 37°C, mean ± SD (n=2)

| Ki (neutrophil elastase (NE); MeO-Succinyl-Ala-Ala-Pro-Val-NHMec 50 μM, PBS pH 7.4, 37°C, mean ± SD (n=2)) [µM] | k 3 (neutrophil elastase (NE); [1]) | second-order rate constant (k 3/K i) relative to the analogous valine diphenyl phosphonate QUBEL1 (neutrophil elastase (NE); fold greater than QUBEL1) | k 3 (trypsin; [1]) | effectiveness as irreversible inhibitor relative to the analogous lysine diphenyl phosphonate QUBTL2 (trypsin; fold greater than QUBTL2) | k 3 / K i (trypsin; [2]) [M⁻¹ s⁻¹] | SMILES | k 3 / K i (neutrophil elastase (NE); [2]) |
| --- | --- | --- | --- | --- | --- | --- | --- |
| 6 | 0.38(± 0.06) min^−1 | approximately five-fold | – | – | – | CC(C)N(CC(=O)NCC(=O)NCC(=O)NCCCOCCOCCOCCCNC(=O)CCCCC1SCC2NC(=O)NC21)C(=O)ON1C(=O)CCC1=O (stereo not drawn) [NAP800, Succinimidoyl-CO-NVal-Gly-Gly-PEG-Biotin] | 6.41 × 10^4 M^−1 min^−1 and 6.4 (± 0.57) × 10^4 M^−1 min^−1 |
| – | – | – | 0.6 (+ 0.2) min^−1 | two-fold | 45700 | NCCCCN(CC(=O)NCC(=O)NCC(=O)NCCCOCCOCCOCCCNC(=O)CCCCC1SCC2NC(=O)NC21)C(=O)ON1C(=O)CCC1=O (stereo not drawn) [NAP830, Succinimidoyl-CO-NLys-Gly-Gly-PEG-Biotin] | – |
